The values that follow come from US7273877B2, “5-substituted-4-[(substituted phenyl) amino]-2-pyridone derivatives” (Warner-Lambert Company, LLC, priority 2003, dated 2007).

Series [1] concerns phosphorylation of MAP kinase (ERK) in murine colon 26 (C26) carcinoma cells. Kind of series: Cellular inhibition of ERK phosphorylation, C26ELSA (pERK ELISA format). It is filed as cell-based. The following applies: Mus musculus, 1 h, C26 cells treated with test compound for one hour at 37° C. As to the method: (§1) MEK inhibitors were evaluated by determining their ability to inhibit phosphorylation of MAP kinase (ERK) in murine colon 26 (C26) carcinoma cells. Since ERK1 and ERK2 represent the only known substrates for MEK1and MEK2, the measurement of inhibition of ERK phosphorylation in cells provides direct read out of cellular MEK inhibition by the compounds of the invention. Detection of phosphorylation of ERK was carried out either by Western blot or ELISA format. Briefly, the assays involve treatment of exponentially growing C26 cells with varying concentrations of the test compound (or vehicle control) for one hour at 37° C. For Western blot assay, cells were rinsed free of compound/vehicle and lysed in a solution containing 70 mM NaCl, 50 mM glycerol phosphate, 10 mM HEPES, pH 7.4, 1% Triton X-100, 1 mM Na3VO4, 100 μM PMSF, 10 μM leupeptin and 10 μM pepstatin. Supernatants were then subjected to gel electrophoresis and hybridized to a primary antibody recognizing dually phosphorylated ERK1 and ERK2. To evaluate total MAPK levels, blots were subsequently ‘stripped’ and re-probed with a 1:1 mixture of polyclonal antibodies recognizing unphosphorylated ERK1 and ERK2. For pERK ELISA assay, pERK TiterZyme Enzyme immunometric Assay kits were acquired from Assay Designs, Inc (Ann Arbor, Mich.). Briefly, cells were harvested in lysis solution containing 50 mM β-glycerophosphate, 10 mM HEPES, ph7.4, 70 mM NaCl, 2 mM EDTA and 1% SDS and protein lysates were diluted 1:15 with supplied Assay buffer prior to the execution of the assay. The subsequent steps were carried out essentially as recommended by the manufacturer.
(§2) The inhibition data generated by the above protocols is disclosed in Table I. If several concentrations of inhibitor were tested, IC50 values (the concentration which gives 50% inhibition) were determined graphically from the dose response curve for % inhibition. Otherwise, percent inhibitions at measured concentrations are reported.

Series [2] has the same test system. Kind of series: Cellular inhibition of ERK phosphorylation, C26CPA1. In kind it is cell-based. The following applies: Mus musculus, 1 h; C26 cells treated with test compound for one hour at 37° C. On the procedure:
as §1, §2

In turn, `C#Cc1ccc(Nc2cc(=O)n(C)cc2C(N)=O)c(F)c1` [Example 17, 4-(4-Ethynyl-2-fluoroanilino)-1-methyl-6-oxo-1,6-dihydro-3-pyridinecarboxamide] returned a melting point of 269 to 272 °C. Further, the IC50 in series [1] was 21 nM.
Compound `Cn1cc(C(N)=O)c(Nc2ccc(CCCO)cc2F)cc1=O` [Example 21, 4-[2-Fluoro-4-(3-hydroxypropyl)anilino}-1-methyl-6-oxo-1,6-dihydro-3-pyridinecarboxamide] gave a melting point of 214 to 216 °C. In addition, the IC50 in series [1] was determined as 630 nM.
The compound `Cn1cc(C(=O)NOCCO)c(Nc2ccc(I)cc2F)cc1=O` [Example 1, 4-(2-Fluoro-4-iodoanilino)-N-(2-hydroxyethoxy)-1-methyl-6-oxo-1,6-dihydro-3-pyridinecarboxamide] returned a melting point of 148 to 151 °C. In series [2], the half-maximal inhibitory concentration (IC50) worked out at 43.8 nM. In series [1], this compound displayed an IC50 of 4.9 nM.
The compound `CCOC(=O)c1cn(C)c(=O)cc1Nc1ccc2c(c1)CCC2` [Example 58, 4-(Indan-5-ylamino)-1-methyl-6-oxo-1,6-dihydro-pyridine-3-carboxylic acid ethyl ester] yielded a melting point of 141 to 143 °C. The same compound had an IC50 in series [1] of 3900 nM.
The compound `CSc1ccc(Nc2cc(=O)n(C)cc2-c2nnc(NC(CO)CO)o2)c(F)c1` [Example 91, 4-(2-Fluoro-4-methylsulfanyl-phenylamino)-5-[5-(2-hydroxy-1-hydroxymethyl-ethylamino)-[1,3,4]oxadiazol-2-yl]-1-methyl-1H-pyridin-2-one] had an IC50 in series [1] above 1000 nM.
`Cn1cc(C(=O)NC(CO)(CO)CO)c(Nc2ccc(I)cc2F)cc1=O` [Example 47, 4-(2-Fluoro-4-iodoanilino)-N-[2-hydroxy-1,1-bis(hydroxymethyl)ethyl]-1-methyl-6-oxo-1,6-dihydro-3-pyridinecarboxamide] registered a melting point of 100 to 105 °C. The same compound showed an IC50 in series [1] of at least 5000 nM.
Take `CSc1ccc(Nc2cc(=O)n(C)cc2-c2nnc(NCC(O)CO)o2)c(F)c1` (centres unmarked) [Example 92, 5-[5-(2,3-dihydroxy-propylamino)-[1,3,4]oxadiazol-2-yl]-4-(2-fluoro-4-methylsulfanyl-phenylamino)-1-methyl-1H-pyridine-2-one]: half-maximal inhibition in series [1] (IC50) required 1240 nM.
Consider `Cn1cc(C(N)=O)c(Nc2ccc(Cl)c(Cl)c2Cl)cc1=O` [Example 67, 1-Methyl-6-oxo-4-(2,3,4-trichloro-phenylamino)-1,6-dihydro-pyridine-3-carboxylic acid amide], for which, in series [2], the IC50 was 76 nM. That is a double-digit nanomolar value.
Take `O=C(NCCO)c1c[nH]c(=O)cc1Nc1ccc(I)cc1F` [Example 11, 4-(2-Fluoro-4-iodoanilino)-N-(2-hydroxyethyl)-6-oxo-1,6-dihydro-3-pyridinecarboxamide]: the melting point was in the range of 254 to 256 °C. In series [1], this compound showed an IC50 of at least 5000 nM.
With `Cn1cc(C(N)=O)c(Nc2ccc(I)cc2F)cc1=O` [Example 10, 4-(2-Fluoro-4-iodoanilino)-1-methyl-6-oxo-1,6-dihydro-3-pyridinecarboxamide], the IC50 in series [1] is 4.4 nM.
In the case of `CCOC(=O)c1cn(C)c(=O)cc1Nc1ccc(C)c(C)c1` [Example 57, 4-(3,4-Dimethyl-phenylamino)-1-methyl-6-oxo-1,6-dihydro-pyridine-3-carboxylic acid ethyl ester], the melting point is 153 to 154 °C. Also, the IC50 in series [1] is at least 5000 nM.
In the same order, the values of `Cn1cc(C(=O)NCCCO)c(Nc2ccc3ccccc3c2)cc1=O` [Example 42, N-(3-Hydroxypropyl)-1-methyl-4-(2-naphthylamino)-6-oxo-1,6-dihydro-3-pyridinecarboxamide] are 78 to 83 °C and 93 nM.
Turning to `CSc1ccc(Nc2cc(=O)n(C)cc2-c2nnc(NCCO)o2)c(F)c1` [Example 90, 4-(2-Fluoro-4-methylsulfanyl-phenylamino)-5-[5-(2-hydroxy-ethylamino)[1,3,4]oxadiazol-2-yl]-1-methyl-1H-pyridin-2-one], in series [1], the IC50 is above 5000 nM.
In the case of `Cn1cc(C(=O)OCC(N)(CO)CO)c(Nc2ccc(I)cc2F)cc1=O` [Example 48, 2-Amino-3-hydroxy-2-(hydroxymethyl)propyl-4-(2-fluoro-4-iodoanilino)-1-methyl-6-oxo-1,6-dihydro-3-pyridinecarboxylate], the melting point is 117 to 122 °C. The compound also came in with a half-maximal inhibitory concentration (IC50) in series [1] of at least 5000 nM.
In turn, `Cn1cc(C(=O)NCCCO)c(Nc2ccc(I)cc2F)cc1=O` [Example 5, 4-(2-Fluoro-4-iodoanilino)-N-(3-hydroxypropyl)-1-methyl-6-oxo-1,6-dihydro-3-pyridinecarboxamide] registered a melting point of 81 to 86 °C. In series [2], the IC50 came out at 60 nM.
For the compound `CSc1ccc(Nc2cc(=O)n(C)cc2C(=O)NC(CO)CO)c(F)c1` [Example 89, 4-(2-Fluoro-4-methylsulfoanyl-phenylamino)-1-methyl-6-oxo-1,6, dihydro-pyridine-3-carboxylic acid (2-hydroxy-1-hydroxymethyl-ethyl)-amide], in series [2], half-maximal inhibition (IC50) was put at 2820 nM.
With `O=C(NCCCO)c1c[nH]c(=O)cc1Nc1ccc(I)cc1F` [Example 14, 4-(2-Fluoro-4-iodoanilino)-N-(3-hydroxypropyl)-6-oxo-1,6-dihydro-3-pyridinecarboxamide], the melting point was in the range of 253 to 255 °C. The IC50 in series [1] was at least 5000 nM.
As for `CNC(=O)c1cn(C)c(=O)cc1Nc1ccc(I)cc1F` [Example 51, 4-(2-Fluoro-4-iodoanilino)-N,1-dimethyl-6-oxo-1,6-dihydro-3-pyridinecarboxamide], the melting point lay in the range of 252 to 254 °C. Further, the IC50 in series [1] is at least 5000 nM.
For the compound `NC(=O)c1cn(CC(O)CO)c(=O)cc1Nc1ccc(I)cc1F` (centres unmarked) [Example 31, 1-(2,3-Dihydroxypropyl)-4-(2-fluoro-4-iodoanilino)-6-oxo-1,6-dihydro-3-pyridinecarboxamide], the melting point fell in the range of 210 to 213 °C. Moreover, the half-inhibitory concentration (IC50) in series [2] was found to be 1410 nM.
Turning to `NC(=O)c1c[nH]c(=O)cc1Nc1ccc(I)cc1F` [Example 19, 4-(2-Fluoro-4-iodoanilino)-6-oxo-1,6-dihydro-3-pyridinecarboxamide], the melting point lay in the range of 320 to 325 °C. Further, half-maximal inhibition in series [1] (IC50) was put at 110 nM.
In the same order, the values of `Cn1cc(C(N)=O)c(Nc2ccc(Br)cc2F)cc1=O` [Example 40, 4-(4-Bromo-2-fluoroanilino)-1-methyl-6-oxo-1,6-dihydro-3-pyridinecarboxamide] are 282 to 284 °C and 120 nM.
In the same order, the values of `Cn1cc(C(=O)NCCO)c(Nc2ccc(CCCO)cc2F)cc1=O` [Example 7, 4-[2-Fluoro-4-(3-hydroxypropyl)anilino]-N-(2-hydroxyethyl)-1-methyl-6-oxo-1,6-dihydro-3-pyridinecarboxamide] are 177 to 179 °C and at least 5000 nM.
In the same order, the values of `C=CCn1cc(C(N)=O)c(Nc2ccc(I)cc2F)cc1=O` [Example 30, 1-Allyl-4-(2-fluoro-4-iodoanilino)-6-oxo-1,6-dihydro-3-pyridinecarboxamide] are 215 to 217 °C and 430 nM.
Turning to `Cc1ccc(Nc2cc(=O)n(C)cc2C(N)=O)c(F)c1` [Example 37, 4-(2-Fluoro-4-methylanilino)-1-methyl-6-oxo-1,6-dihydro-3-pyridinecarboxamide], the melting point lay within 285 to 288 °C. In series [1], this compound came in with an IC50 of at least 5000 nM.
In the same order, the values of `Cn1cc(C(=O)NCCCO)c(Nc2ccc(CCCO)cc2F)cc1=O` [Example 9, 4-[2-Fluoro-4-(3-hydroxypropyl)anilino]-N-(3-hydroxypropyl)-1-methyl-6-oxo-1,6-dihydro-3-pyridinecarboxamide] are 161 to 164 °C and at least 5000 nM.
In the same order, the values of `O=C(O)Cn1cc(C(=O)NCCCO)c(Nc2ccc(I)cc2F)cc1=O` [Example 24, (4-(2-Fluoro-4-iodoanilino)-5-{[(3-hydroxypropyl)amino]carbonyl}-2-oxo-1(2H)-pyridinyl)acetic acid] are 199 to 202 °C and at least 5000 nM.
